In US4758421A (priority 1985, dated 1988):

Tests used:
[1] = test system: CHA255; test: Binding constants with monoclonal antibody CHA255 by equilibrium dialysis; set-up: species or system mice; details: specificity of antibody for the antibody-inducing antigen
Procedure: (§1) Monoclonal antibodies against L--benzyl--EDTA--In were prepared in cooperation with Hybritech, Inc., 11085 Toneyana Road, San Diego, Calif. 92121. Briefly, an L--benzyl--EDTA--In isothiocyanate reagent was reacted with keyhole limpet hemocyanin, which was used to immunize mice. Splenocytes derived from the immunized mice were fused with a suitable tumor cell line, using known somatic cell hybridization techniques. Promising clones were grown in mouse ascites fluid, and the antibodies obtained were purified by ion-exchange chromatography. Two antibodies against L--benzyl--EDTA--In, designated CHA255 and CHB235, were selected.
(§2) The binding constants of the two monoclonal antibodies with L--benzyl--EDTA chelates of several different metals were determined by equilibrium dialysis. The measured binding constants were shown in Table II below, with standard deviations indicated in parentheses.
(§3) Table III gives binding constant data from a second binding affinity study, involving different In--EDTA and In--HED3A chelates.

[2] = test system: CHB235; test: Binding constants with monoclonal antibody CHB235 by equilibrium dialysis; set-up: species or system mice; details: specificity of antibody for the antibody-inducing antigen
Procedure: as §1, §2, §3

[3] = test system: Chinese hamster ovary (CHO) cells; test: CHO cell survival after 60 minutes exposure (FIG. 4); assay type: cell-based
Procedure: Chinese hamster ovary (CHO) cells were cultured in standard cell-culture medium, under log phase growth conditions. Increasing concentrations of either BL--Co--S--FeEDTA or FeEDTA were added to each of two groups of cells. The cells were incubated for 60 minutes at 37° C., and the percent cell survivors was determined conventionally by serial dilution in microtitre plates.

Compound	binding constant greater than for non-antigen metal chelates [1]	binding constant greater than for non-antigen metal chelates [2]	cell toxicity [3]
L--benzyl--EDTA--In [In (III)]	1 to 4 orders of magnitude	1 to 4 orders of magnitude	–
O=C([O-])CN(CCN(CC(=O)[O-])CC(=O)[O-])CC(=O)[O-].[Fe+3] [FeEDTA]	–	–	relatively non-toxic
